# Entries after “also recorded” stand apart in the source; their conditions may differ.
# What was measured:
# type I NKT cells [1] = assay: In vitro αGalCer-stimulated proliferation of splenic type I NKT cells ([3H]-thymidine incorporation); type: cell-based, naïve B6 mice; details: for type I NKT cell proliferation at optimal concentration of RAR agonist: Example 15, αGalCer 10 ng/ml, comparison among ATRA, Tretinoin, AM580, AC55649, CD1530
# Experimental: Retinoic acid receptors (RARs) comprise three major subtypes: RARα, RAR β, and RARγ. The RAR agonist ATRA is not selective for a specific subtype. The contribution of RAR subtypes to inhibition of type I NKT cell activity was tested with subtype-selective RAR agonists as follows. Splenic cells were isolated from naïve B6 (WT) mice and cultured in vitro in the presence of [^3H]-thymidine, an optimal concentration of αGalCer, and graded concentrations of the pan-RAR agonist ATRA, the RARα agonist AM580, the RAR β 2 agonist AC55649 or the RARγ agonist CD1530. Proliferation of the type I NKT cells in response to αGalCer stimulation was measured by [^3H]-thymidine incorporation. […]
# In vitro proliferation and cytokine release assays were performed on freshly isolated splenocytes and type I NKT cell hybridomas (1.2 Hyb). The cells were cultured in the presence of [3H]-thymidine and an optimal concentration of αGalCer (10 ng/ml) with titrating concentrations of ATRA, Tretinoin, the RARα agonist AM580, the RAR β agonist AC55649 or the RARγ agonist CD1530. Proliferation of the type I NKT cells in response to αGalCer stimulation was quantified by [^3H]-thymidine incorporation. IL-2 levels were measured using IL-2 sandwich ELISA. Optimal concentrations of the RAR agonists was determined. […]
# liver type I NKT cells = assay: Flow cytometry count of liver type I NKT cells (αGalCer/CD1d-tetramer/TCRβ) after in vivo administration; details: mice injected i.p. 15 mg/kg daily for 5 days
# Experimental: (§1) Functional changes in type I NKT cells following in vivo administration of Tazarotene or ATRA was tested. Groups of mice were injected intraperitoneally with […] (15 mg/kg), 300 μg Tazarotene (15 mg/kg) or vehicle (DMSO) daily for a period of 5 days. Splenic Type I NKT cells were purified and cultured in vitro with increasing concentrations of αGalCer. Cell proliferation was measured by quantification of [^3H]-thymidine incorporation and the results are shown at FIG. 17.
# Mononuclear cells were isolated from livers of mice injected with either ATRA, Tazarotene or vehicle (DMSO) and stained with αGalCer/CD1d-tetramer and a pan anti-TCRβ antibodies. Flowcytometry was performed and the population of αGalCer/CD1d-tetramer/TCRβ expressing cells (type I NKT cells) was quantified as shown in FIG. 18.
# [2] = test system: Type I NKT hybridoma cells (Hy1.2); assay: IL-2 secretion by Hy1.2 cells pretreated with ATRA in the absence of antigen-presenting cells; type: cell-based; details: Hy1.2 pretreated 24 hr with 5, 10 or 20 μg/ml ATRA, washed, then APCs + graded αGalCer, 16 hour
# Experimental: The effect of ATRA treatment on type I NKT cells in the absence of antigen-presenting cells was also measured. Type I NKT hybridoma cells (Hy1.2) were cultured in vitro either without ATRA or with 5 μg/ml, 10 μg/ml, or 20 μg/ml ATRA for 24 hr. The cells were then washed three times and co-cultured with irradiated splenocytes (APCs) in the presence of graded concentrations of the lipid antigen, αGalCer. Supernatants were collected 16 hour later and IL-2 levels were measured using IL-2 sandwich ELISA.
# [3] = test system: alcohol-induced liver injury; assay: Alcohol-induced liver injury, chronic plus binge ethanol feeding: serum ALT and liver histology; type: in vivo, B6 (WT) male mice
# Source text: Following acclimatization with nutritionally adequate Lieber-DeCarli liquid diet for a week, 6-8 week old male C57BL/6J mice (B6) and Jα18−/− mice, which lack type I NKT cells but not type 2 NKT cells, were given free access to a liquid diet containing 5% ethanol or an isocaloric dextrin maltose-containing diet (Bio-Serv, NJ). Precautions were taken to prepare the diet fresh every day using autoclaved water in sterilized feeders, changing feed daily.
# B6 and Jα18−/− mice receiving the ethanol-containing diet were separated into two groups, the chronic ethanol feeding group and the chronic plus binge ethanol feeding group. Mice in the chronic ethanol feeding group were fed liquid diet containing 5% ethanol for up to 4-5 weeks. Mice in the chronic plus binge ethanol feeding group were fed liquid diet containing 5% ethanol for 10 days followed by (on day 11) a single high dose of gavaged ethanol (5 g/kg body weight). Mice in the control group were gavaged with isocaloric dextrin maltose. Following gavage, mice were kept on a temperature controlled warm pad and monitored. Though initially slow moving, most mice receiving the high dose of gavaged ethanol regained normal behavior within hours. Mice were euthanized 8-9 hr after gavage. […]
# Serum ALT levels were determined for each group of mice. […]
# type I NKT cells [4] = assay: Ex vivo proliferation and cytokine response to αGalCer of type I NKT cells from RAR agonist injected mice; type: in vivo; details: for proliferative response of splenic type I NKT cells to αGalCer stimulation: Example 17, cells from mice injected i.p. 15 mg/kg daily for 5 days, vs vehicle (DMSO)
# Experimental: Functional changes in type I NKT cells following ATRA administration were further tested. In two independent experiments, groups of Black 6 (WT) mice were injected intraperitoneally with 0.3 mg/animal (˜15 mg/Kg body weight) ATRA or vehicle (DMSO) daily for a period of 5 days. Type I NKT cells were purified and cultured in vitro with increasing concentrations of αGalCer. Cell proliferation was measured and supernatants were collected. The cytokine response of the isolated type I NKT after in vitro challenge with αGalCer was determined by sandwich ELISA for IFN-γ, IL-4, IL-6, IL-10, IL-12, and IL-13. […] No secretion of IFN-γ, IL-6, IL-10, IL-12, or IL-13 in response to αGalCer stimulation was detected from type I NKT cells isolated from ATRA injected mice.
# as §1
# [5] = test system: MBPAc1-9-reactive CD4+ T cells; assay: Proliferation of MBPAc1-9-reactive CD4+ T cells ([3H]-thymidine incorporation); type: cell-based, naïve B10.PL VB8.2 TCR transgenic mice; details: ATRA 0.15, 1.2, 18.8 μg/ml
# Experimental: The effect of ATRA on class II MHC-restricted conventional CD4 T Cells was tested by isolating myelin basic protein MBPAc1-9-reactive CD4+ T cells from naïve B10.PL VB8.2 TCR transgenic mice and culturing the cells in vitro with [^3H]-thymidine and an optimal concentration of MBPAc1-9 in the presence or absence of graded concentrations of ATRA (0.15, 1.2, 18.8 μg/ml). Proliferation of the MBPAc1-9-reactive CD4+ T cells was measured by [^3H]-thymidine incorporation.
# type I NKT cells (Hy1.2) = assay: IL-2 secretion by type I NKT cell hybridoma (Hy1.2) with APCs and αGalCer (IL-2 sandwich ELISA); type: cell-based
# Experimental: The affect of ATRA on IL-2 cytokine secretion by a type I NKT cells in response to an in vitro challenge with αGalCer was tested by co-culturing NKT cells (Hy1.2) and irradiated antigen-presenting cells (APCs) in vitro with an optimal concentration of αGalCer in the presence or absence of ATRA (0.15 μg/ml, 1.2 μg/ml, or 18.8 μg/ml) for a period of 16 hours. Supernatants were collected and secreted IL-2 levels were measured using IL-2 sandwich ELISA.
# In vitro proliferation and cytokine release assays were performed on freshly isolated splenocytes and type I NKT cell hybridomas (1.2 Hyb). The cells were cultured in the presence of [3H]-thymidine and an optimal concentration of αGalCer (10 ng/ml) with titrating concentrations of ATRA, Tretinoin, the RARα agonist AM580, the RAR β agonist AC55649 or the RARγ agonist CD1530. Proliferation of the type I NKT cells in response to αGalCer stimulation was quantified by [^3H]-thymidine incorporation. IL-2 levels were measured using IL-2 sandwich ELISA. Optimal concentrations of the RAR agonists was determined.
# In vitro proliferation and cytokine release assays were performed on freshly isolated splenocytes and type I NKT cell hybridomas (1.2 Hyb). The cells were cultured in the presence of [^3H]-thymidine and an optimal concentration of αGalCer (10 ng/ml) with increasing concentrations of ATRA or Tazarotene. Proliferation of the type I NKT cells in response to αGalCer stimulation was quantified by [H]-thymidine incorporation. IL-2 levels were measured using IL-2 sandwich ELISA.
# [6] = cells from mice injected i.p. with 0.3 mg/animal ATRA daily for 5 days
# [7] = Example 16, splenocytes, αGalCer 10 ng/ml, increasing concentrations of ATRA or Tazarotene
# [8] = Example 16, 1.2 Hyb, αGalCer 10 ng/ml, increasing concentrations of ATRA or Tazarotene
compound,measurement,setting,value
CCCCCCCCc1ccc(-c2ccc(C(=O)O)cc2)cc1 [AC55649],type I NKT cell proliferation in response to αGalCer,"type I NKT cells [1]; Example 12, 10^1 μg/ml",low or minimal proliferation
same,type I NKT cell proliferation in response to αGalCer,"type I NKT cells [1]; Example 12, graded concentrations up to (below) 10^1 μg/ml",Reduced cell proliferation
CC1(C)CCC(C)(C)c2cc(C(=O)Nc3ccc(C(=O)O)cc3)ccc21 [AM580],type I NKT cell proliferation in response to αGalCer,"type I NKT cells [1]; Example 12, 10^1 μg/ml",proliferation was maintained
"CC1=C(/C=C/C(C)=C/C=C/C(C)=C/C(=O)O)C(C)(C)CCC1 [ATRA, all trans retinoic acid]",numbers of type I NKT cells in the livers vs control,liver type I NKT cells,no significant difference
same,IL-2 secretion,[2],inhibits IL-2 secretion
same,protection from liver damage following excess alcohol consumption (summary of FIGS. 6 and 7),[3],significantly inhibits liver damage
same,liver histology for hepatic steatohepatitis (fatty liver disease),"[3]; B6 mice, sulfatide or ATRA injected",little sign of fatty liver disease; also recorded: appears relatively normal
same,proliferative response of splenic type I NKT cells to αGalCer stimulation,type I NKT cells [4],inhibits type I NKT cell activity
same,proliferation of type I NKT cells in response to αGalCer stimulation,type I NKT cells [4]; cells from WT mice injected i.p. with 0.3 mg/animal ATRA daily for 5 days,did not proliferate
same,IFN-γ secretion in response to αGalCer stimulation,type I NKT cells [4]; [6],No secretion
same,IL-4 secretion in response to αGalCer stimulation,type I NKT cells [4]; [6],Reduced levels
same,IL-6 secretion in response to αGalCer stimulation,type I NKT cells [4]; [6],No secretion
same,IL-10 secretion in response to αGalCer stimulation,type I NKT cells [4]; [6],No secretion
same,IL-12 secretion in response to αGalCer stimulation,type I NKT cells [4]; [6],No secretion
same,IL-13 secretion in response to αGalCer stimulation,type I NKT cells [4]; [6],No secretion
same,MBPAc1-9-stimulated proliferation of CD4+ T cells,[5],No inhibition; also recorded: does not directly inhibit
same,αGalCer-induced type I NKT cell proliferation compared with αGalCer alone,type I NKT cells [1]; 0.15 μg/ml ATRA + αGalCer,similar
same,αGalCer-induced type I NKT cell proliferation compared with αGalCer alone,type I NKT cells [1]; 1.2 μg/ml ATRA + αGalCer,reduced
same,αGalCer-induced type I NKT cell proliferation compared with αGalCer alone,type I NKT cells [1]; 18.8 μg/ml ATRA + αGalCer,greatest inhibition
same,type I NKT cell proliferation,"type I NKT cells [1]; ATRA alone, no αGalCer",No or minimal proliferation
same,type I NKT cell proliferation in response to αGalCer,"type I NKT cells [1]; Example 12, 10^1 μg/ml",low or minimal proliferation
same,type I NKT cell proliferation in response to αGalCer,"type I NKT cells [1]; Example 14, 10^1 μg/ml",no or minimal proliferation
same,type I NKT cell proliferation at optimal concentration of RAR agonist,type I NKT cells [1],lowest levels of proliferation
same,type I NKT cell proliferation,type I NKT cells [1]; [7],inhibit
same,IL-2 secretion,"type I NKT cells (Hy1.2); 0.15 μg/ml ATRA, αGalCer, irradiated APCs, 16 hours",not significantly affected
same,IL-2 secretion,"type I NKT cells (Hy1.2); 1.2 μg/ml ATRA, αGalCer, irradiated APCs, 16 hours",significant reductions
same,IL-2 secretion,"type I NKT cells (Hy1.2); 18.8 μg/ml ATRA, αGalCer, irradiated APCs, 16 hours",greatest reduction
same,IL-2 secretion,type I NKT cells (Hy1.2); [8],inhibit
O=C(O)c1ccc(-c2ccc3cc(O)c(C45CC6CC(CC(C6)C4)C5)cc3c2)cc1 [CD1530],type I NKT cell proliferation in response to αGalCer,"type I NKT cells [1]; Example 12, 10^1 μg/ml",low or minimal proliferation
same,type I NKT cell proliferation at optimal concentration of RAR agonist,type I NKT cells [1],lowest levels of proliferation
same,IL-2 secretion at optimal concentration of RAR agonist,"type I NKT cells (Hy1.2); Example 15, 1.2 Hyb, αGalCer 10 ng/ml, comparison among RAR agonists",lowest levels of IL-2 secretion
Tazarotene,numbers of type I NKT cells in the livers vs control,liver type I NKT cells,no significant difference
same,proliferative response of splenic type I NKT cells to αGalCer stimulation,type I NKT cells [4],lowest levels of proliferation
same,type I NKT cell proliferation,type I NKT cells [1]; [7],achieves its inhibitory effects at lower concentrations; also recorded: better inhibition of type I NKT cells than ATRA
same,IL-2 secretion,type I NKT cells (Hy1.2); [8],achieves its inhibitory effects at lower concentrations

# — US11660309B2, “Prevention and treatment of inflammatory conditions” (GRI BIO, INC., priority 2011, dated 2023)
